Earlier results on one compound are cited in article PMC5520971 (Organic & biomolecular chemistry, 2017).

In series [1] the test system is hepatocellular carcinoma cells. The following applies: ref [18].
Series [2] has as its system hepatocellular carcinoma cells. The following applies: ref [18]. This is another data set of the same source.

In the case of `CC1=C(/C=C/C(C)=C/C=C/C(C)=C/C(=O)O)C(C)(C)CCC1` [all-trans retinoic acid], the “growth of hepatocellular carcinoma cells in a mouse xenograft model” value in series [1] was “selectively inhibited the growth”. Further, in series [2], the “growth of hepatocellular carcinoma cells in vitro” value is on record as “selectively inhibited the growth”.
